# Experimental data: US11878016B2, “Methods and products for treating subjects with autism spectrum disorders” (NEURIM PHARMACEUTICALS (1991) LTD., priority 2021, dated 2024)
# Test system: C57BL/6J mice exposed in utero to VPA (and SAL control offspring)
# Assay: Three chamber test in the valproic acid (VPA) model of autism
# Assay type: in vivo
# Source text: Furthermore, rodents prenatally exposed to this drug display behavioral phenotypes characteristics of the human autism condition. This model might better represent the many cases of idiopathic autism which are of environmental/epigenetic origins than do transgenic models carrying mutations in single autism-associated genes. The VPA model is an environmentally triggered model with strong construct and clinical validity. The VPA-induced rodent model is an art-recognized and well-established and widely utilized animal model to test putative efficacy of pharmacological agents on behavioral and social elements in the autistic spectrum for humans.
# C57BL/6J mice were obtained at 7-8 weeks of age and were mated, with pregnancy confirmed by the presence of a vaginal plug on embryonic day 0 (E0). On E12.5, pregnant females received a single intraperitoneal injection of sodium salt of valproic acid (VPA, 500 mg/kg) dissolved in saline (SAL). Control females received an equal volume of SAL only. Day of birth was recorded as PO (postnatal day zero). The offspring were weaned on P21 (postnatal day 21) and the male offspring were housed in groups of 4-5. Experiments were carried out on male offspring. The mice were housed in a temperature- and humidity-controlled environment with ad libitum access to food and water. Animals were maintained on a 12 hr light/dark schedule, with lights on at 8 A.M.
# The male offspring of VPA-treated mice were divided into 4 groups (n=8-9 per group): VPA-Vehicle)+50 μg of ZnSO4, VPA-ticagrelor (0.3 mg/kg)+[…] of ZnSO4, VPA-ticagrelor (10 mg/kg)+50 μg of ZnSO4 and VPA-ticagrelor (30 mg/kg)+50 μg of ZnSO4. The male offspring of SAL-treated mice were divided into 2 groups (n=10 per group): SAL-Vehicle and SAL-ticagrelor (30 mg/kg)+50 μg of ZnSO4. From the sixth week to eight week of age, the mice received three once-weekly injections of either saline (50 μl/g ip) or ticagrelor (i.p.). Twenty-four hours after the last injection, the three chamber test was performed.
# The three-chamber test assesses cognition in the form of general sociability and interest in social novelty in a rodent model of CNS disorders. This test measures the sociability, the propensity to spend time with another mouse, as compared to time spent alone in an identical but empty chamber.
# The apparatus was an acrylic box (length: 62 cm, width: 41 cm, height: 30.5 cm) divided into three chambers. A 5 cm×5 cm opening was made on the partitions so that mice could freely explore the three chambers. Mouse was first placed into the centre chamber of the apparatus and allowed 5 min for habituation. Following the completion of the acclimatization period the test mouse was removed to a holding cage, and the bedding material was redistributed. Then a novel mouse enclosed in a tiny cage was placed in one lateral chamber (social area) and an empty tiny cage was placed in the other lateral chamber as a novel object (non-social area). Mouse was first placed into the centre chamber and allowed to freely explore the chambers for 10 min and the time spent in each of the three areas (social, centre, and non-social areas) was recorded.
# Statistical Analyses: Statistical analyses for the data were performed using one-way or two-way RM ANOVA (SigmaStat 3.1). Post-hoc comparisons were performed with the Tukey HSD method. If data were not normally distributed, Kruskal-Wallis one way ANOVA on ranks followed by the Dunn's method was used. All data were represented as mean±SEM. Significant level was set at p<0.05.
# [1] = SAL (control) offspring, ticagrelor 30 mg/kg i.p. + 50 μg ZnSO4, vs SAL-Vehicle, p>0.05
smiles,measurement,setting,value
"CCCSc1nc(N[C@@H]2C[C@H]2c2ccc(F)c(F)c2)c2nnn([C@@H]3C[C@H](OCCO)[C@@H](O)[C@H]3O)c2n1 [ticagrelor, (1S,2S,3R,5S)-3-[7-[[(1R,2S)-2-(3,4-difluorophenyl)cyclopropyl]amino]-5-(propylthio)-3H-1,2,3-triazolo[4,5-d]pyrimidin-3-yl]-5-(2-hydroxyethoxy)-1,2-cyclopentanediol]",time spent in non-social area,[1],no significant difference
same,time spent in social area,[1],no significant difference
same,time spent in social area,"VPA offspring, ticagrelor 10 mg/kg i.p. + 50 μg ZnSO4, three once-weekly injections, test 24 h after the last, vs VPA-Vehicle, p<0.01",significant increase
same,time spent in non-social area,"VPA offspring, ticagrelor 10 mg/kg i.p. + 50 μg ZnSO4, vs VPA-Vehicle, p<0.01",significant decrease
same,time spent in social area,"VPA offspring, ticagrelor 30 mg/kg i.p. + 50 μg ZnSO4, three once-weekly injections, test 24 h after the last, vs VPA-Vehicle, p<0.001",significant increase
same,time spent in non-social area,"VPA offspring, ticagrelor 30 mg/kg i.p. + 50 μg ZnSO4, vs VPA-Vehicle, p<0.01",significant decrease
same,time spent in centre area,"VPA offspring, ticagrelor 30 mg/kg i.p. + 50 μg ZnSO4, vs VPA-Vehicle, p<0.05",significant decrease
same,deficit in sociability,"three once-weekly administrations of ticagrelor and zinc salt, C57BL/6J mice exposed in utero to VPA",attenuated the deficit in sociability
